From patent US6355799B1, “Substituted benzene compounds, process for their preparation, and herbicidal and defoliant compositions containing them” (ISK Americas Incorporated, priority 1997, dated 2002)

Legend:
Format in all cases: in vivo
[1] = tested on: ivyleaf morningglory (Ipomoea hederacea, IPOHE); assay: Post-emerge test, greenhouse herbicide activity screening; conditions: post-emerge, 14 days after application, rating scale 0-100
Method in brief: (§1)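 Compounds in acetone were track-sprayed at 15–1000 g ai/ha: pre-emergence onto soil sown the previous day, then top-watered to incorporate and later bottom-watered; post-emergence onto 2–3 leaf plants with 0.25% v/v surfactant, bottom-watered only. Ratings on a 0–100 phytotoxicity scale were taken at day 14.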

[2] = tested on: sicklepod (Cassia obtusifolia, CASOB); assay: as above; conditions: post-emerge, 14 days after application, rating scale 0-100
Method in brief: as §1

[3] = tested on: johnsongrass (Sorghum halepense, SORHA); assay: as above; conditions: post-emerge, 14 days after application, rating scale 0-100
Method in brief: as §1

[4] = tested on: barnyardgrass (Echinochloa crus-galli, ECHCG); assay: as above; conditions: post-emerge, 14 days after application, rating scale 0-100
Method in brief: as §1

[5] = tested on: common ragweed (Ambrosia artemisizfolia L., AMBEL); assay: as above; conditions: post-emerge, 14 days after application, rating scale 0-100
Method in brief: as §1

[6] = tested on: lambsquarters (Chenopodium album, CHEAL); assay: as above; conditions: post-emerge, 14 days after application, rating scale 0-100
Method in brief: as §1

[7] = tested on: velvetleaf (Abutilon theophrasti, ABUTH); assay: as above; conditions: post-emerge, 14 days after application, rating scale 0-100
Method in brief: as §1

[8] = tested on: large crabgrass (Digitaria sanguinalis, DIGSA); assay: as above; conditions: post-emerge, 14 days after application, rating scale 0-100
Method in brief: as §1

[9] = tested on: green foxtail (Setaria viridis, SETVI); assay: as above; conditions: post-emerge, 14 days after application, rating scale 0-100
Method in brief: as §1

[10] = tested on: redroot pigweed (Amaranthus retroflexus, AMARE); assay: as above; conditions: post-emerge, 14 days after application, rating scale 0-100
Method in brief: as §1

[11] = tested on: ivyleaf morningglory (Ipomoea hederacea, IPOHE); assay: Pre-emerge test, greenhouse herbicide activity screening; conditions: rated 14 days after application, 0 = no damage, 100 = complete death
Method in brief: (§2)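 Applied at 15–1000 g ai/ha from acetone in 187 l/ha spray volume. Post-emergence applications included 0.25% v/v non-ionic surfactant and reached plants sown 8–21 days before. Pre-emergence applications were incorporated by surface watering. Efficacy or crop damage was rated on a 0–100 scale after 14 days.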

[12] = tested on: sicklepod (Cassia obtusifolia, CASOB); assay: as above; conditions: rated 14 days after application, 0 = no damage, 100 = complete death
Method in brief: as §2

[13] = tested on: johnsongrass (Sorghum halepense, SORHA); assay: as above; conditions: rated 14 days after application, 0 = no damage, 100 = complete death
Method in brief: as §2

[14] = tested on: barnyardgrass (Echinochloa crus-galli, ECHCG); assay: as above; conditions: rated 14 days after application, 0 = no damage, 100 = complete death
Method in brief: as §2

[15] = tested on: common ragweed (Ambrosia artemisizfolia L., AMBEL); assay: as above; conditions: rated 14 days after application, 0 = no damage, 100 = complete death
Method in brief: as §2

[16] = tested on: lambsquarters (Chenopodium album, CHEAL); assay: as above; conditions: rated 14 days after application, 0 = no damage, 100 = complete death
Method in brief: as §2

[17] = tested on: velvetleaf (Abutilon theophrasti, ABUTH); assay: as above; conditions: rated 14 days after application, 0 = no damage, 100 = complete death
Method in brief: as §2

[18] = tested on: large crabgrass (Digitaria sanguinalis, DIGSA); assay: as above; conditions: rated 14 days after application, 0 = no damage, 100 = complete death
Method in brief: as §2

[19] = tested on: green foxtail (Setaria viridis, SETVI); assay: as above; conditions: rated 14 days after application, 0 = no damage, 100 = complete death
Method in brief: as §2

[20] = tested on: redroot pigweed (Amaranthus retroflexus, AMARE); assay: as above; conditions: rated 14 days after application, 0 = no damage, 100 = complete death
Method in brief: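 Sandy loam pots; pre-emerge: sown 1 d pre-spray, surface-watered after, then bottom-watered. Post-emerge: sown 8–21 d before, 2–3 leaf stage, + 0.25% v/v NIS, bottom-watered. Acetone, 187 l/ha track spray, 15–1000 g ai/ha. 0–100 injury score, day 14.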

[21] = tested on: field corn (Zea mays L., var. Dekalb 535, CORN); assay: Pre-emerge test, crop safety; conditions: rated 14 days after application, 0 = no damage, 100 = complete death
Method in brief: (§3)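 Compounds in acetone were track-sprayed at 187 l/ha, 15–1000 g ai/ha, onto sandy loam pots. Pre-emerge seeds were sown one day before spraying, with surface watering afterwards. Post-emerge plants were at the 2–3 leaf stage and sprayed with 0.25% v/v non-ionic surfactant. Injury was rated 0–100 at 14 days.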

[22] = tested on: upland rice (Oryza sp., var. Tebonnet, RICE); assay: Pre-emerge test, crop safety; conditions: rated 14 days after application, 0 = no damage, 100 = complete death
Method in brief: as §3

[23] = tested on: field corn (Zea mays L., var. Dekalb 535, CORN); assay: Post-emerge test, crop safety; conditions: post-emerge, 14 days after application, rating scale 0-100
Method in brief: as §2

[24] = tested on: upland rice (Oryza sp., var. Tebonnet, RICE); assay: Post-emerge test, crop safety; conditions: post-emerge, 14 days after application, rating scale 0-100
Method in brief: as §2

COc1c(Cl)cc(F)c(-n2c(=O)cc(C(F)(F)F)n(N)c2=O)c1NC(=O)c1ccc(F)cc1F [2-44]
20: phytotoxicity rating CASOB ([2]; 63 g ai/ha) | Pre-emerge phytotoxicity rating (0-100), crop damage, RICE ([22]; 63 g ai/ha) | phytotoxicity rating CORN ([23]; 250 g ai/ha)
100: phytotoxicity rating IPOHE ([1]; 250 g ai/ha) | phytotoxicity rating ABUTH ([7]; 63 g ai/ha) | phytotoxicity rating ABUTH ([7]; 250 g ai/ha) | Pre-emerge Herbicidal Activity, phytotoxicity rating (0-100), IPOHE ([11]; 250 g ai/ha) | Pre-emerge Herbicidal Activity, phytotoxicity rating (0-100), CASOB ([12]; 250 g ai/ha) | Pre-emerge Herbicidal Activity, phytotoxicity rating (0-100), AMBEL ([15]; 63 g ai/ha) | Pre-emerge Herbicidal Activity, phytotoxicity rating (0-100), AMBEL ([15]; 250 g ai/ha) | Pre-emerge Herbicidal Activity, phytotoxicity rating (0-100), CHEAL ([16]; 63 g ai/ha) | Pre-emerge Herbicidal Activity, phytotoxicity rating (0-100), CHEAL ([16]; 250 g ai/ha) | Pre-emerge Herbicidal Activity, phytotoxicity rating (0-100), ABUTH ([17]; 63 g ai/ha) | Pre-emerge Herbicidal Activity, phytotoxicity rating (0-100), ABUTH ([17]; 250 g ai/ha) | Pre-emerge Herbicidal Activity, phytotoxicity rating (0-100), DIGSA ([18]; 250 g ai/ha) | Pre-emerge Herbicidal Activity, phytotoxicity rating (0-100), SETVI ([19]; 250 g ai/ha) | Pre-emerge Herbicidal Activity, phytotoxicity rating (0-100), AMARE ([20]; 63 g ai/ha) | Pre-emerge Herbicidal Activity, phytotoxicity rating (0-100), AMARE ([20]; 250 g ai/ha)
95: Pre-emerge Herbicidal Activity, phytotoxicity rating (0-100), SORHA ([13]; 250 g ai/ha)
90: phytotoxicity rating AMBEL ([5]; 250 g ai/ha) | phytotoxicity rating CHEAL ([6]; 250 g ai/ha) | phytotoxicity rating AMARE ([10]; 250 g ai/ha) | Pre-emerge Herbicidal Activity, phytotoxicity rating (0-100), IPOHE ([11]; 63 g ai/ha) | Pre-emerge Herbicidal Activity, phytotoxicity rating (0-100), SETVI ([19]; 63 g ai/ha)
50: phytotoxicity rating IPOHE ([1]; 63 g ai/ha) | phytotoxicity rating SETVI ([9]; 250 g ai/ha) | phytotoxicity rating AMARE ([10]; 63 g ai/ha) | Pre-emerge Herbicidal Activity, phytotoxicity rating (0-100), SORHA ([13]; 63 g ai/ha)
10: phytotoxicity rating ECHCG ([4]; 250 g ai/ha) | phytotoxicity rating DIGSA ([8]; 250 g ai/ha) | Pre-emerge phytotoxicity rating (0-100), crop damage, CORN ([21]; 63 g ai/ha) | phytotoxicity rating RICE ([24]; 250 g ai/ha)
0: phytotoxicity rating SORHA ([3]; 63 g ai/ha) | phytotoxicity rating ECHCG ([4]; 63 g ai/ha) | phytotoxicity rating DIGSA ([8]; 63 g ai/ha) | phytotoxicity rating SETVI ([9]; 63 g ai/ha) | phytotoxicity rating CORN ([23]; 63 g ai/ha) | phytotoxicity rating RICE ([24]; 63 g ai/ha)
80: Pre-emerge phytotoxicity rating (0-100), crop damage, RICE ([22]; 250 g ai/ha)
60: phytotoxicity rating AMBEL ([5]; 63 g ai/ha) | phytotoxicity rating CHEAL ([6]; 63 g ai/ha) | Pre-emerge Herbicidal Activity, phytotoxicity rating (0-100), CASOB ([12]; 63 g ai/ha) | Pre-emerge Herbicidal Activity, phytotoxicity rating (0-100), DIGSA ([18]; 63 g ai/ha)
99: Pre-emerge Herbicidal Activity, phytotoxicity rating (0-100), ECHCG ([14]; 250 g ai/ha)
70: phytotoxicity rating CASOB ([2]; 250 g ai/ha) | Pre-emerge phytotoxicity rating (0-100), crop damage, CORN ([21]; 250 g ai/ha)
30: phytotoxicity rating SORHA ([3]; 250 g ai/ha) | Pre-emerge Herbicidal Activity, phytotoxicity rating (0-100), ECHCG ([14]; 63 g ai/ha)
